Our source for the Bimolecular inhibition rate constant (kobs/[I]) values is ChEMBL document CHEMBL1149971, “A general approach toward the design of inhibitors of serine proteinases: inhibition of human leukocyte elastase by substituted dihydrouracils” (Bioorg Med Chem Lett, 1992).

For this experiment, the target named is T1, Neutrophil elastase (Homo sapiens) (UniProt P08246).
T1 sequence (whole entry): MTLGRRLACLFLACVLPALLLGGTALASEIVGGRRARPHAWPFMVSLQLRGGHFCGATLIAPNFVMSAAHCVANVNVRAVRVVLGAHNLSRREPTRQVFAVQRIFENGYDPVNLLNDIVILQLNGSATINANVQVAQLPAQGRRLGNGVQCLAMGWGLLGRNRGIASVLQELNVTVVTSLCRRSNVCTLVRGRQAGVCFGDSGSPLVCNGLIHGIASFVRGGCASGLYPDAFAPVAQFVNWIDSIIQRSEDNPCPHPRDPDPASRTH
Kind of experiment: Bimolecular rate constant for the inhibition of human leukocyte elastase.

Compound `O=C1NCC(Cc2ccccc2)C(=O)N1OS(=O)(=O)/C=C/c1ccccc1` (centres undefined) gave a Bimolecular inhibition rate constant (kobs/[I]) of 480 M⁻¹ s⁻¹.
The result for `CS(=O)(=O)ON1C(=O)CC(Cc2ccccc2)NC1=O` (centres undefined) reads 800 M⁻¹ s⁻¹; that for `O=C1CC(Cc2ccccc2)NC(=O)N1OS(=O)(=O)/C=C/c1ccccc1` (centres undefined), 1980 M⁻¹ s⁻¹.
The compound `CS(=O)(=O)ON1C(=O)NCC(Cc2ccccc2)C1=O` (centres undefined) gave a Bimolecular inhibition rate constant (kobs/[I]) of 3310 M⁻¹ s⁻¹.
